# Read-outs that look alike come from different tables or passages of the source.
# Assays:
# [1] = system: Hafnia alvei; test: MIC by agar dilution (NCCLS M7-A4), 288 enteropathogenic isolates, eight quinolones; type: cell-based; details: Hafnia alvei (n = 32)
# [2] = system: Mycobacterium tuberculosis (MTB); test: MIC by proportions method (NCCLS M24-T, 1995), 82 MTB strains; type: cell-based; details: Mycobacterium tuberculosis; 82 MTB strains
# [3] = system: Yersinia enterocolitica; test: MIC by agar dilution (NCCLS M7-A4), 288 enteropathogenic isolates, eight quinolones; type: cell-based; details: Yersinia enterocolitica (n = 22)
# [4] = system: Campylobacter jejuni; test: MIC by agar dilution (NCCLS M7-A4), 5% sheep blood, microaerophilic 48 h; type: cell-based; details: Campylobacter jejuni (n=91)
# [5] = system: Streptococcus pneumoniae; test: MIC by broth microdilution (NCCLS), dried MicroScan panels, clinical isolates 1998-1999; type: cell-based; details: for MIC90: Streptococcus pneumoniae
# [6] = system: Campylobacter jejuni; test: MIC by agar dilution (NCCLS M7-A4), 288 enteropathogenic isolates, gemifloxacin and 15 other antimicrobials; details: for MIC: Campylobacter jejuni
# [7] = system: Acinetobacter spp.; test: MIC by agar dilution (NCCLS), 322 nosocomial Gram negative isolates, Athens 1998; type: cell-based; details: n = 38 strains
# [8] = Streptococcus pneumoniae (302 isolates)
smiles,measurement,setting,value
"Cc1c(F)c(N2CCNC(C)C2)cc2c1c(=O)c(C(=O)O)cn2C1CC1 (stereo not drawn) [Grepafloxacin, grepafloxacin]",% Susceptible,[1],100%
same,MIC50,[1],0.03 µg/mL
same,MIC90,[1],0.06 µg/mL
same,MIC Range,[1],≤0.015 to 0.06 µg/mL
same,MIC90,[2],2 µg/mL
same,% Susceptible,[3],100%
same,MIC50,[3],0.03 µg/mL
same,MIC90,[3],0.03 µg/mL
same,MIC Range,[3],≤0.015 to 0.25 µg/mL
same,% Susceptible,[4],31.86%
same,MIC50,[4],32 µg/mL
same,MIC90,[4],64 µg/mL
same,MIC Range,[4],0.03 to 128 µg/mL
same,MIC50,[5]; [8],0.03 µg/mL
same,MIC Range,[5]; [8],≤0.015 to 0.25 µg/mL
same,MIC90,[5]; Erythromycin-resistant (86),0.12 µg/mL
same,MIC90,[5]; Erythromycin-sensitive (216),0.25 µg/mL
same,MIC90,[5]; Penicillin-intermediate (124),0.12 µg/mL
same,MIC90,[5]; Penicillin-resistant (80),0.12 µg/mL
same,MIC90,[5]; Penicillin-sensitive (98),0.12 µg/mL
same,MIC90,[5]; [8],0.12 µg/mL
same,MIC (mg/L) Range,[6]; Campylobacter jejuni N= 91,0.03 to 128 mg/L
same,MIC,[6]; read-out: MIC (mg/L) 50%,32 mg/L
same,MIC,[6]; read-out: MIC (mg/L) 90%,64 mg/L
same,MIC50,[7]; Acinetobacter,2 µg/mL
same,MIC90,[7]; Acinetobacter,64 µg/mL
same,MIC Range,[7],≤0.03 to 64 µg/mL
